Laboratory results from PubChem BioAssay (NCI).
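Growth conditions: 96-well plates. Treatment: test compound, 48 hours, 5 concentrations. Analysis: linear interpolation between bracketing concentrations; unreached endpoints set to highest concentration. TGI denotes the concentration required for complete inhibition of growth.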

What was measured:
Experiment in all cases: DTP human tumour cell line panel, 48 h
COLO 205 colon = tested on: COLO 205 colon
HCT-15 colon = tested on: HCT-15 colon
KM12 colon = tested on: KM12 colon
ACHN renal = tested on: ACHN renal
786-0 renal = tested on: 786-0 renal
MDA-N = tested on: MDA-N
HOP-62 NSCLC = tested on: HOP-62 NSCLC
SF-539 CNS = tested on: SF-539 CNS
SK-MEL-5 melanoma = tested on: SK-MEL-5 melanoma
NCI-H460 lung = tested on: NCI-H460 lung
NCI-H522 lung = tested on: NCI-H522 lung
SR leukemia = tested on: SR leukemia
K-562 leukemia = tested on: K-562 leukemia
MDA-MB-435 = tested on: MDA-MB-435
HT29 colon = tested on: HT29 colon
A549 NSCLC = tested on: A549 NSCLC
HCT-116 colon = tested on: HCT-116 colon
LOX IMVI melanoma = tested on: LOX IMVI melanoma
HOP-92 NSCLC = tested on: HOP-92 NSCLC
HCC-2998 colon = tested on: HCC-2998 colon
SW-620 colon = tested on: SW-620 colon
TK-10 renal = tested on: TK-10 renal
CCRF-CEM leukemia = tested on: CCRF-CEM leukemia
SN12C renal = tested on: SN12C renal
SNB-19 CNS = tested on: SNB-19 CNS
NCI/ADR-RES ovarian = tested on: NCI/ADR-RES ovarian
MDA-MB-231 breast = tested on: MDA-MB-231 breast
SK-OV-3 ovarian = tested on: SK-OV-3 ovarian
MOLT-4 leukemia = tested on: MOLT-4 leukemia
CAKI-1 renal = tested on: CAKI-1 renal
OVCAR-5 ovarian = tested on: OVCAR-5 ovarian
T-47D breast = tested on: T-47D breast
SK-MEL-2 melanoma = tested on: SK-MEL-2 melanoma
MALME-3M melanoma = tested on: MALME-3M melanoma
NCI-H226 lung = tested on: NCI-H226 lung
SK-MEL-28 melanoma = tested on: SK-MEL-28 melanoma
RXF 393 renal = tested on: RXF 393 renal
OVCAR-3 ovarian = tested on: OVCAR-3 ovarian
PC-3 prostate = tested on: PC-3 prostate
UACC-257 melanoma = tested on: UACC-257 melanoma
A498 renal = tested on: A498 renal
MCF7 breast = tested on: MCF7 breast
M14 melanoma = tested on: M14 melanoma
HL-60(TB) leukemia = tested on: HL-60(TB) leukemia
DU-145 prostate = tested on: DU-145 prostate
UO-31 renal = tested on: UO-31 renal
HS 578T breast = tested on: HS 578T breast
EKVX NSCLC = tested on: EKVX NSCLC
NCI-H23 lung = tested on: NCI-H23 lung
U251 CNS = tested on: U251 CNS
SF-295 CNS = tested on: SF-295 CNS
RPMI-8226 leukemia = tested on: RPMI-8226 leukemia
UACC-62 melanoma = tested on: UACC-62 melanoma
SF-268 CNS = tested on: SF-268 CNS
IGROV1 ovarian = tested on: IGROV1 ovarian

O=C(c1cccs1)N1CCc2ccccc2C1
TGI (COLO 205 colon): > 100 µM
TGI (HCT-15 colon): > 100 µM
TGI (KM12 colon): > 100 µM
TGI (ACHN renal): > 100 µM
TGI (786-0 renal): > 100 µM
TGI (MDA-N): 92.3 µM
TGI (HOP-62 NSCLC): > 100 µM
TGI (SF-539 CNS): > 100 µM
TGI (SK-MEL-5 melanoma): > 100 µM
TGI (NCI-H460 lung): > 100 µM
TGI (NCI-H522 lung): > 100 µM
TGI (SR leukemia): > 100 µM
TGI (K-562 leukemia): > 100 µM
TGI (MDA-MB-435): > 100 µM
TGI (HT29 colon): > 100 µM
TGI (A549 NSCLC): > 100 µM
TGI (HCT-116 colon): > 100 µM
TGI (LOX IMVI melanoma): > 100 µM
TGI (HOP-92 NSCLC): > 100 µM
TGI (HCC-2998 colon): > 100 µM
TGI (SW-620 colon): > 100 µM
TGI (TK-10 renal): > 100 µM
TGI (CCRF-CEM leukemia): > 100 µM
TGI (SN12C renal): > 100 µM
TGI (SNB-19 CNS): > 100 µM
TGI (NCI/ADR-RES ovarian): > 100 µM
TGI (MDA-MB-231 breast): > 100 µM
TGI (SK-OV-3 ovarian): > 100 µM
TGI (MOLT-4 leukemia): > 100 µM
TGI (CAKI-1 renal): > 100 µM
TGI (OVCAR-5 ovarian): > 100 µM
TGI (T-47D breast): > 100 µM
TGI (SK-MEL-2 melanoma): > 100 µM
TGI (MALME-3M melanoma): > 100 µM
TGI (NCI-H226 lung): > 100 µM
TGI (SK-MEL-28 melanoma): > 100 µM
TGI (RXF 393 renal): > 100 µM
TGI (OVCAR-3 ovarian): > 100 µM
TGI (PC-3 prostate): > 100 µM
TGI (UACC-257 melanoma): > 100 µM
TGI (A498 renal): > 100 µM
TGI (MCF7 breast): > 100 µM
TGI (M14 melanoma): > 100 µM
TGI (HL-60(TB) leukemia): 76 µM
TGI (DU-145 prostate): > 100 µM
TGI (UO-31 renal): > 100 µM
TGI (HS 578T breast): > 100 µM
TGI (EKVX NSCLC): > 100 µM
TGI (NCI-H23 lung): > 100 µM
TGI (U251 CNS): > 100 µM
TGI (SF-295 CNS): > 100 µM
TGI (RPMI-8226 leukemia): > 100 µM
TGI (UACC-62 melanoma): > 100 µM
TGI (SF-268 CNS): > 100 µM
TGI (IGROV1 ovarian): > 100 µM
